Measured values: patent publication US20140107151A1, “TYROSINE KINASE INHIBITORS” (Principal Biopharma Inc., priority 2011, published 2014)

Target: human recombinant Btk (Homo sapiens, UniProt Q06187)
Experiment: Btk Enzymatic Activity Assay (Caliper-based kinase assay)
Type: biochemical
Settings: human recombinant Btk 2 nM, ATP 40 μM, peptide substrate 1 μM, room temperature for 3 h
Description: A Caliper-based kinase assay (Caliper Life Sciences, Hopkinton, Mass.) was used to measure inhibition of Btk kinase activity of a compound of Formula (I). […] The reaction was then terminated with EDTA, final concentration 20 mM and the phosphorylated reaction product was quantified on a Caliper Desktop Profiler (Caliper LabChip 3000).

Chain of human recombinant Btk (Q06187 whole entry): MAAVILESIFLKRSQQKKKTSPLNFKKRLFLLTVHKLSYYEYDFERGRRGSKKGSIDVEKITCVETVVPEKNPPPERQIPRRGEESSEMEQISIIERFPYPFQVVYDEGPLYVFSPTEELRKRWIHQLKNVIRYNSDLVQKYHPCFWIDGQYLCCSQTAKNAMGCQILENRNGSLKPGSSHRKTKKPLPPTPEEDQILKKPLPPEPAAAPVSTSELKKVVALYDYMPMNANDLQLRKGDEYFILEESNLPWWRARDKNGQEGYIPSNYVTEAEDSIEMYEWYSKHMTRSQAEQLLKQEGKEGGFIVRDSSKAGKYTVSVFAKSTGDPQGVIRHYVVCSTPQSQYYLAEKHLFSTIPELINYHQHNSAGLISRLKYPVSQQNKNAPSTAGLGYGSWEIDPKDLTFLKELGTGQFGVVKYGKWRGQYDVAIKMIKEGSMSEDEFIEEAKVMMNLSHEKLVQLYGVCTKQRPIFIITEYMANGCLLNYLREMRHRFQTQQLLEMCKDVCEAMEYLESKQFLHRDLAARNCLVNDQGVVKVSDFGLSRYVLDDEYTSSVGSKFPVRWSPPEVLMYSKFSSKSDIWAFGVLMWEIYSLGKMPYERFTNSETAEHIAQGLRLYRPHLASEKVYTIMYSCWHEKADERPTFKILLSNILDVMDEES

Row | Compound | IC50 [nM]
1 | N#CC(=CC1CC1)C(=O)N1CCC(c2cc3[nH]nc(N)c3c(-c3ccc(Oc4ccccc4)cc3)n2)CC1 [Example 8, 2-(4-(3-amino-4-(4-phenoxyphenyl)-1H-pyrazolo[4,3-c]pyridin-6-yl)piperidine-1-carbonyl)-3-cyclopropylacrylonitrile] | 2
2 | N#CC(=CC1CC1)C(=O)N1CCCC(c2cc3[nH]nc(N)c3c(-c3ccc(Oc4ccccc4)cc3)n2)C1 (centres unmarked) [Example 9, 2-(3-(3-amino-4-(4-phenoxyphenyl)-1H-pyrazolo[4,3-c]pyridin-6-yl)piperidine-1-carbonyl)-3-cyclopropylacrylonitrile] | 1.1
3 | N#CC(=CC1CC1)C(=O)N1CCCC1Cc1cc2[nH]nc(N)c2c(-c2ccc(Oc3ccccc3)cc2)n1 (centres unmarked) [Example 10, 2-(2-((3-amino-4-(4-phenoxyphenyl)-1H-pyrazolo[4,3-c]pyridin-6-yl)-methyl)pyrrolidine-1-carbonyl)-3-cyclopropylacrylonitrile] | 2
4 | CC(C)C=C(C#N)C(=O)N1CCC[C@H]1c1cc2[nH]nc(N)c2c(-c2ccc(Oc3ccccc3)cc2)n1 [Example 11B, (S)-2-(2-(3-amino-4-(4-phenoxyphenyl)-1H-pyrazolo[4,3-c]pyridin-6-yl)pyrrolidine-1-carbonyl)-4-methylpent-2-enenitrile] | 13

Second part, the molecule after the results:

Row | IC50 [nM] | Compound
5 | 1.2 | CC(C)C=C(C#N)C(=O)N1CCC(Cc2cc3[nH]nc(N)c3c(-c3ccc(Oc4ccccc4)cc3)n2)C1 (centres unmarked) [Example 10A, 2-(3-((3-amino-4-(4-phenoxyphenyl)-1H-pyrazolo[4,3-c]pyridin-6-yl)methyl)-pyrrolidine-1-carbonyl)-4-methylpent-2-enenitrile]
6 | 9.3 | CC(C)C=C(C#N)C(=O)N1CCC[C@@H](c2cc3[nH]nc(N)c3c(-c3ccc(Oc4ccccc4)cc3)n2)C1 [Example 11, (R)-2-(3-(3-amino-4-(4-phenoxyphenyl)-1H-pyrazolo[4,3-c]pyridin-6-yl)piperidine-1-carbonyl)-4-methylpent-2-enenitrile]
7 | 15.5 | CC(C)C=C(C#N)C(=O)N1CCC[C@H](c2cc3[nH]nc(N)c3c(-c3ccc(Oc4ccccc4)cc3)n2)C1 [Example 11A, (S)-2-(3-(3-amino-4-(4-phenoxyphenyl)-1H-pyrazolo[4,3-c]pyridin-6-yl)piperidine-1-carbonyl)-4-methylpent-2-enenitrile]
8 | 13.6 | CC(C)C=C(C#N)C(=O)N1CCC[C@@H]1c1cc2[nH]nc(N)c2c(-c2ccc(Oc3ccccc3)cc2)n1 [Example 11C, (R)-2-(2-(3-amino-4-(4-phenoxyphenyl)-1H-pyrazolo[4,3-c]pyridin-6-yl)pyrrolidine-1-carbonyl)-4-methylpent-2-enenitrile]
